# Data from patent US20150368213A1, “Novel Inhibitors of System Xc-” (The University of Montana, Missoula, MT, priority 2014, published 2015).
# Like-named read-outs stand apart in the source and are kept apart here.
# Biological target: T1, System xc− (Sxc−, glutamate/cystine antiporter) (Homo sapiens, UniProt Q9UPY5)
# T1 construct: A number of glioma cell lines, including SNB-19, express markedly higher levels of Sxc^−; host or cells: SNB-19 human glioma cells
# T1 sequence (Q9UPY5 1-501): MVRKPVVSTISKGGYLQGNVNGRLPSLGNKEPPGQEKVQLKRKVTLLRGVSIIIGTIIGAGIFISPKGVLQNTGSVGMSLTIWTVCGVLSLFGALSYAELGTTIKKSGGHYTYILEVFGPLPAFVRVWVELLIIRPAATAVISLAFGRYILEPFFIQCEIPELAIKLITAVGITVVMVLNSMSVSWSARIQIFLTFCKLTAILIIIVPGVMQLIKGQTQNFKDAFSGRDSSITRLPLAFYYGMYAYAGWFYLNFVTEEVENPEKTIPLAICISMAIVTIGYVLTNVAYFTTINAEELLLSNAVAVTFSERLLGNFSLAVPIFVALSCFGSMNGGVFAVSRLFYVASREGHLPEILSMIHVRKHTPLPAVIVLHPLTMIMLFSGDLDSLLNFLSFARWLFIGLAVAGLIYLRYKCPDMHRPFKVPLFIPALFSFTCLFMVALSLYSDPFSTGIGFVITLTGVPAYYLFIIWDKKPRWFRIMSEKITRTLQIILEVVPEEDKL
# T1 sequence (P08195 1-529 partner): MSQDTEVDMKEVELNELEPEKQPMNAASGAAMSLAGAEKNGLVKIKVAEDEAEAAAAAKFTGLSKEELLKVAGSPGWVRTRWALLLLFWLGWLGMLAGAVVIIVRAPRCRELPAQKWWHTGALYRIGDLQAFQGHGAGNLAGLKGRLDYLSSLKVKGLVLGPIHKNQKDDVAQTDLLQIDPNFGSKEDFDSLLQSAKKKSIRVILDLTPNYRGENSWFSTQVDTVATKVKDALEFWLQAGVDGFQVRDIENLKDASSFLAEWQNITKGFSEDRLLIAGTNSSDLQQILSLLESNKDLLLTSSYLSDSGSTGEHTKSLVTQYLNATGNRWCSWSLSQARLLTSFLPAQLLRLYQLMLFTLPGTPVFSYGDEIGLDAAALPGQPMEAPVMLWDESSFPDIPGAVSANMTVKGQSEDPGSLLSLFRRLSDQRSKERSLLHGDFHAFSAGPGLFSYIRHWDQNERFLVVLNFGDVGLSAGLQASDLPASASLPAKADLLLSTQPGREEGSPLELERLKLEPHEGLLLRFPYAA
# Experiment: Inhibition of 3H-L-Glu uptake into SNB-19 glioma cells under Cl-dependent (Na-free) conditions
# Assay type: cell-based
# Details: for 3H-L-Glu Uptake (% control): 100 μM 3H-L-Glu, smaller number = greater inhibition; for inhibitory activity, ranking among compounds of Table 1: comment on Table 1
# Procedure: SNB-19 glioma cells, purchased from American Type Culture Collection (Manassas, Va.), were grown in DMEM/F-12 medium (pH 7.4) containing 1 mM pyruvate and 16 mM NaHCO3 and supplemented with 10% fetal calf serum. The cells were cultured in 150 cm^2 flasks (Corning) and maintained at 37° C. in a humidified atmosphere of 5% CO2. In the ^3H-L-Glu uptake experiments, cells were seeded in 12 well culture plates (Costar) at a density of 5×10^4 cells/well and maintained for 3 days until 80-90% confluent. Protein concentrations were determined by the bicinchoninic acid (BCA) method (Pierce).
# Uptake of ^3H-L-Glu into cultured cells was quantified using a modification of the procedure of Martin and Shane as previously described by Patel et al. (supra). Briefly, after removal of culture media, wells were rinsed three times and pre-incubated in 1 ml Na^+-free HEPES buffered (pH 7.4) Hank's balanced salt solution (HBHS) at 30° C. for 5 min. The Nat free buffer contained: 137.5 mM choline Cl, 5.36 mM KCl, 0.77 mM KH2PO4, 0.71 mM MgSO^4.7H2O, 1.1 mM CaCl2, 10 mM D-glucose, and 10 mM HEPES. Uptake was initiated by aspiration of the pre-incubation buffer and the addition of a 500 gl aliquot of Na^+-free transport buffer containing ^3H-L-Glu (4-16 mCi/m1) mixed with L-Glu (10-500 μM, final concentration). In those assays that evaluated inhibitor activity, the 500 gl aliquot of transport buffer contained both the ^3H-L-Glu and potential inhibitors to ensure simultaneous addition. Following a 5 min incubation at 30° C., the assays were terminated by three sequential 1 ml washes with ice cold buffer after which the cells were dissolved in 1 ml of 0.4 M NaOH for 24 h. An aliquot (200 μl) was then transferred into a 5 ml glass scintillation vial and neutralized with the addition of 5 gl glacial acetic acid followed by 3.5 ml Liquiscint© scintillation fluid (National Diagnostics) to each sample. Incorporation of radioactivity was quantified by liquid scintillation counting (LSC, Beckman LS 6500). Values are reported as mean±S.E.M. and are corrected for non-specific uptake (e.g., leakage and binding) by subtracting the amount of ^3H-L-Glu accumulation at 4° C.
# The inhibitory activity of the compounds was determined by quantifying the ability of the analogues to reduce the accumulation of ^3H-L-Glu into human SNB-19 glioblastoma cells under Cl-dependent (Na-free) conditions. A number of glioma cell lines, including SNB-19, express markedly higher levels of Sxc^− and reduced levels of the sodium-dependent excitatory amino acid transporters (“EAATs”) than do primary astrocytes, making them well suited for pharmacological assays (Ye et al., Compromised glutamate transport in human glioma cells: reduction-mislocalization of sodium-dependent glutamate transporters and enhanced activity of cystine-glutamate exchange, J Neurosci, 1999 Dec. 15, 19(24), 10767-77). The compounds of the invention were initially screened at a single concentration of substrate (100 μM ^3H-L-Glu) and isoxazole (500 μM) to confirm inhibitory activity. […] (The data are reported as % of control uptake, thus the smaller the number the greater the level of inhibition.)
# A slope replot for 5-4-TFM-Benzyl-4-bis-TFM-HMICA is included in FIG. 3, (average Ki=3±1 μM, n=5). […] In the instance of 5-4-TFM-Benzyl-4-bis-TFM-HMICA the replot of I/Vmax,apparent vs. [I] was indeed linear and yielded a Ki of about 8 μM (plots not shown). […] As the identification of the di-substituted isoxazoles as noncompetitive inhibitors was unexpected, the kinetic data was also analyzed using the Eadie-Hofstee method as a second graphical approach.
# [1] = SNB-19 cells, 3H-L-Glu uptake, read-out: KI 3H-L-Glu Uptake
SMILES,"pattern (mechanism) of inhibition (Michaelis-Menten, LWB and Eadie-Hofstee analyses, FIGS. 1-4)","3H-L-Glu Uptake (% control) (compound 100 μM, SNB-19 cells)","Ki (replot of LWB graphs, plots not shown, read-out: Ki from 1/Vmax,apparent vs. [I] replot) [µM]","Ki (slope replot (FIG. 3), n=5, read-out: average Ki from LWB slope vs. [I] replot) [µM]",Ki [1] [µM],"inhibitory activity, ranking among compounds of Table 1","3H-L-Glu Uptake (% control) (compound 500 μM, SNB-19 cells)","inhibition of the System Xc- antiporter, in words (statement in the crystal structure description)"
C/C(=N\Nc1cc(C(F)(F)F)cc(C(F)(F)F)c1)c1c(C(=O)O)noc1Cc1ccc(C(F)(F)F)cc1 [5-4-TFM-Benzyl-4-bis-TFM-HMICA],noncompetitive inhibition,14,~8,3 ± 1,–,–,–,–
"Cc1onc(-c2c3ccccc3c(Cl)c3ccccc23)c1C(=O)NC(Cc1cc(Br)c(O)c(Br)c1)C(=O)O (centres unmarked) [AIM-DBT, 2-(3-(10-chloroanthracen-9-yl)-5-methylisoxazole-4-carboxamido)-3-(3,5-dibromo-4-hydroxyphenyl)propanoic acid]",–,8,–,–,15,greatest inhibitory activity,–,–
"Cc1onc(-c2c(OCc3ccccc3)ccc3ccccc23)c1C(=O)N[C@@H](Cc1cc(Br)c(O)c(Br)c1)C(=O)O [Compound 3ND-101, (2S)-2-(3-(2-(benzyloxy)naphthalen-1-yl)-5-methylisoxazole-4-carboxamido)-3-(3,5-dibromo-4-hydroxyphenyl)propanoic acid]",–,8,–,–,–,greatest inhibitory activity,1,–
"CN(C)c1cccc2c(S(=O)(=O)NC(Cc3cc(Br)c(O)c(Br)c3)C(=O)O)cccc12 (centres unmarked) [Danzyl-DBT, 3-(3,5-dibromo-4-hydroxyphenyl)-2-(5-(dimethylamino)naphthalene-1-sulfonamido)propanoic acid]",–,52,–,–,25,–,–,–
"Cc1onc(-c2cccc3ccccc23)c1C(=O)NC(Cc1cc(Br)c(O)c(Br)c1)C(=O)O (centres unmarked) [LC-19, 3-(3,5-dibromo-4-hydroxyphenyl)-2-(5-methyl-3-(naphthalen-1-yl)isoxazole-4-carboxamido)propanoic acid]",–,23,–,–,–,–,6,–
"COc1ccc2ccccc2c1-c1noc(C)c1C(=O)NC(Cc1cc(Br)c(O)c(Br)c1)C(=O)O (centres unmarked) [MOI-16, 3-(3,5-dibromo-4-hydroxyphenyl)-2-(5-methyl-3-(2-methoxynaphthalen-1-yl)isoxazole-4-carboxamido)propanoic acid]",–,32,–,–,–,–,8,potent inhibitor
